From ChEMBL document CHEMBL1126836, “Antiviral activity of C-alkylated purine nucleosides obtained by cross-coupling with tetraalkyltin reagents” (1993)
Values after ≈ are worked out from the molar mass of the structure shown.

Experiments:
Assay type in all cases: functional
Details in all cases: Homo sapiens
[1] = tested on: E6SM; experiment: Tested for minimum inhibitory concentration against HSV-1 (KOS strain) in E6SM cells
[2] = tested on: E6SM; experiment: Tested for minimum inhibitory concentration against HSV-2 ([…] strain) in E6SM cells
[3] = tested on: E6SM; experiment: Tested for minimum inhibitory concentration against Vaccinia virus in E6SM cells
[4] = tested on: E6SM; experiment: Tested for minimum inhibitory concentration against vesicular stomatitis virus (VSV) in E6SM cells.
[5] = tested on: E6SM; experiment: Tested for minimum cytotoxic concentration on virus-induced cytopathicity in E6SM cells
[6] = tested on: HeLa; experiment: Tested for minimum cytotoxic concentration on RSV (respiratory syncytial virus)-induced cytopathicity in HeLa cells
[7] = tested on: HeLa; experiment: Tested for minimum inhibitory concentration against RSV (respiratory syncytial virus) in HeLa cells
[8] = tested on: E6SM; experiment: Tested for minimum inhibitory concentration against vesicular stomatitis virus (VSV) in E6SM cells
[9] = tested on: HeLa; experiment: Tested for minimum inhibitory concentration against RSV in HeLa cells
[10] = tested on: E6SM; experiment: Tested for minimum inhibitor concentration against vesicular stomatitis virus (VSV) in E6SM cells
[11] = tested on: HeLa; experiment: Tested for minimum inhibitor concentration against RSV in HeLa cells
[12] = tested on: E6SM; experiment: Tested for minimum inhibitor concentration against vesicular stomatitis virus (VSV) in E6SM cells.

Compound	MIC [1] [µg/mL]	MIC [2] [µg/mL]	MIC [3] [µg/mL]	MIC [4] [µg/mL]	MCC [5] [µg/mL]	MCC [6] [µg/mL]	MIC [7] [µg/mL]	MIC [8] [µg/mL]	MIC [9] [µg/mL]	MIC [10] [µg/mL]	MIC [11] [µg/mL]	MIC [12] [µg/mL]
C=Cc1nc2c(N)ncnc2n1C1CCC(CO)O1 (configuration not stated)	> 100	> 20										
Cc1nc2c(N)ncnc2n1C1CCC(CO)O1 (configuration not stated)	> 100	> 20										
Cc1ncnc2c1ncn2[C@@H]1O[C@H](CO)[C@@H](O)[C@H]1O	0.4 (≈ 1.5 µM)		0.04 (≈ 0.15 µM)	0.4 (≈ 1.5 µM)	1	0.8	0.4 (≈ 1.5 µM)					
Nc1nccc2c1ncn2[C@@H]1O[C@H](CO)[C@@H](O)[C@H]1O	> 400		2 (≈ 7.51 µM)		> 400			0.7 (≈ 2.63 µM)				
C=Cc1nc2c(N)ncnc2n1[C@@H]1O[C@H](CO)[C@@H](O)[C@H]1O	2 (≈ 6.82 µM)	40 (≈ 136 µM)	7 (≈ 23.9 µM)		> 400	70			4 (≈ 13.6 µM)			
CCc1nc(N)c2ncn(C3O[C@H](CO)[C@@H](O)[C@H]3O)c2n1 (some centres not stated)	> 10		7 (≈ 23.7 µM)		> 10	4				> 10	0.8 (≈ 2.71 µM)	
C=Cc1ncnc2c1ncn2C1O[C@H](CO)[C@@H](O)[C@H]1O (some centres not stated)	2 (≈ 7.19 µM)		> 4	> 4	10	4			> 4			
CCc1nc2c(N)ncnc2n1C1O[C@H](CO)[C@@H](O)[C@H]1O (some centres not stated)	> 100		0.2 (≈ 0.677 µM)		> 100	100		> 200	10 (≈ 33.9 µM)			
Cc1nc2c(N)ncnc2n1C1O[C@H](CO)[C@@H](O)[C@H]1O (some centres not stated)	> 100		0.2 (≈ 0.711 µM)		> 200	20		> 200	4 (≈ 14.2 µM)			
O=c1[nH]c(=O)n([C@H]2C[C@H](O)[C@@H](CO)O2)cc1/C=C/Br [BRIVUDINE]	0.02 (≈ 0.06 µM)		0.4 (≈ 1.2 µM)		> 400							> 400
NC(=O)c1ncn([C@@H]2O[C@H](CO)[C@@H](O)[C@H]2O)n1 [RIBAVIRIN]	> 300		70 (≈ 287 µM)		> 400					20 (≈ 81.9 µM)		
